{"source": "paper PMC8424644", "about": "“Thermodynamic Stability and Speciation of Ga(III) and Zr(IV) Complexes with High-Denticity Hydroxamate Chelators” (Inorganic Chemistry, 2021)", "key": {"[1]": {"parameters": "method as in ref 24 (DFOB), 2 (THPN), 25,58 (3,4,3-LI-HOPO), 25,59 (DTPA)", "conditions": "(re)calculated from constants of original publications, pH 7.4, cL = 10 μM, cZr(IV) = 1 μM; ref 24 (DFOB), 2 (THPN), 25,58 (3,4,3-LI-HOPO), 25,59 (DTPA); cited from earlier work"}, "[2]": {"parameters": "method as in PMID 31940188", "conditions": "calculations by Holland; cited from earlier work"}, "[3]": {"test": "Fe(III)-L + Zr(IV)-NTA metal–metal competition UV–vis titrations", "format": "physicochemical", "conditions": "Fe(III)-DFOB + Zr(IV)-NTA competition"}, "[4]": {"parameters": "method as in ref 43 (DFOB), 38 (DFOE), 11 (DOTA), 54 (NOTA), 55 (H2hox), 56 (PrP9), 57 (HBED)", "conditions": "(re)calculated from constants of original publications, pH 7.4, cL = 10 μM, cGa(III) = 1 μM; ref 43 (DFOB), 38 (DFOE), 11 (DOTA), 54 (NOTA), 55 (H2hox), 56 (PrP9), 57 (HBED); cited from earlier work"}, "[5]": {"parameters": "method as in PMID 11666621", "conditions": "acidic range; cited from earlier work"}, "[6]": {"conditions": "cited from earlier work"}, "[7]": {"conditions": "acidic range; cited from earlier work"}, "[8]": {"conditions": "cited from earlier work; for pKa attributed to the deprotonation of a water molecule in the Zr(IV) complex: ref 24 (DFOB), 27 (EDTA)"}, "[9]": {"test": "pZr calculation (ligand sequestering ability)", "format": "physicochemical", "conditions": "pZr = −log[Zr(IV)free], pH 7.4, cL = 10 μM, cZr(IV) = 1 μM", "from_the_text": "(§1) Despite a large variety of PET chelators synthesized and tested in order to provide strong coordination of Ga(III) and Zr(IV) in vivo, until now it is has been hard to avoid the release of these metal ions in the body. Here we report two new Ga(III) and Zr(IV) hydroxamate chelators, designed to achieve an efficient sequestering of these metal ions but also to understand how the cyclization and the introduction of an additional hydroxamate group influences the stability of Zr(IV) complexes. Therefore, it is important to evaluate and compare the Ga(III)- and Zr(IV)-sequestering abilities of H3L1 and H4L2 with those of other chelators. However, the direct comparison of the stability constants of metal complexes is not straightforward, and other tools taking into account all the physicochemical properties of the ligands, i.e. their denticity, coordination modes, and acid–base properties, should be used.[52] In order to reliably compare the chelating abilities of H3L1 and H4L2 toward Ga(III) and Zr(IV) ions, the pM values were calculated. pFe was originally introduced by Raymond for the comparison of iron-siderophore systems;[53] pGa = −log[Ga(III)free] and pZr = −log[Zr(IV)free] were calculated at pH 7.4 with cL = 10 μM and cGa(III)/Zr(IV) = 1 μM (Table 2)."}, "[10]": {"test": "pGa calculation (ligand sequestering ability)", "format": "physicochemical", "conditions": "pGa = −log[Ga(III)free], pH 7.4, cL = 10 μM, cGa(III) = 1 μM", "from_the_text": "as §1"}, "[11]": {"test": "pFe calculation (ligand sequestering ability)", "format": "physicochemical", "conditions": "pH=7.4, cL=10 μM, metal 1 μM", "from_the_text": "Despite a large variety of PET chelators synthesized and tested in order to provide strong coordination of Ga(III) and Zr(IV) in vivo, until now it is has been hard to avoid the release of these metal ions in the body. Here we report two new Ga(III) and Zr(IV) hydroxamate chelators, designed to achieve an efficient sequestering of these metal ions but also to understand how the cyclization and the introduction of an additional hydroxamate group influences the stability of Zr(IV) complexes. Therefore, it is important to evaluate and compare the Ga(III)- and Zr(IV)-sequestering abilities of […] and […] with those of other chelators. […] page 15: 100 100 [ZrL4]+ [ZrL3]+ [ZrL4H ] -1 80 [ZrL3H ] 80 2+ -1 [ZrHL4] […] Experimental section. Ligands' sequestering ability Table S3. pFe values with various synthetic and biological chelators a Ligand pFe Chelating groups and ligands geometry […] 24.3 3 hydroxamate groups in a cyclic arrangement […] 23.3 4 hydroxamate groups in a linear arrangement […] 26.9 3 hydroxamate groups in a cyclic arrangement […] 23.61 3 hydroxamate groups in a linear arrangement […] DFOE 27.73 3 hydroxamate groups in a cyclic arrangement […] protonation and stability constants given in original publications; the hydrolysis constants of Fe(III) ions were taken from the literature14 and are given in the experimental section 15 (also on this page, place not known: […]"}, "[12]": {"conditions": "taken from the literature, cited from earlier work"}, "[13]": {"conditions": "taken from the literature, ref 38 (H3L3), 35 (H3L4), 36,38 (DFOE)"}}, "note": "Like-named read-outs stand apart in the source and are kept apart here."}
{"smiles": "O=C(NCCCN(CCCCN(CCCNC(=O)c1cccc(=O)n1O)C(=O)c1cccc(=O)n1O)C(=O)c1cccc(=O)n1O)c1cccc(=O)n1O", "note": "[3,4,3-LI-HOPO]", "values": [{"measurement": "pZr", "setting": "[1]", "result": "44.0[25],[58]"}]}
{"smiles": "O=C1CCN(O)C(=O)CCCNC(=O)CCN(O)C(=O)CCCNC(=O)CCN(O)C(=O)CCCNC(=O)CCN(O)C(=O)CCCN1", "note": "[CTH36]", "values": [{"measurement": "log β [Zr(L)] predicted from computational calculations", "setting": "[2]", "result": 52.84}]}
{"smiles": "CC(=O)N(O)CCCCCNC(=O)CCC(=O)N(O)CCCCCNC(=O)CCC(=O)N(O)CCCCCNC(=O)CCC(=O)N(O)CCCCCN", "note": "[DFO*]", "values": [{"measurement": "log β [Zr(L)] predicted from computational calculations", "setting": "[2]", "result": 51.56}]}
{"smiles": "CC(=O)N(O)CCCCCNC(=O)CCC(=O)N(O)CCCCCNC(=O)CCC(=O)N(O)CCCCCN", "note": "[DFOB]", "values": [{"measurement": "log β [ZrHDFOB]", "setting": "[3]; spectra collected after 1h incubation", "result": 45.9}, {"measurement": "log β [ZrHDFOB]", "setting": "[3]; spectra collected after 24h incubation", "result": "46.1(2)"}, {"measurement": "pGa", "setting": "[4]", "result": "21.6[43]"}, {"measurement": "pZr", "setting": "[1]", "result": "32.2[24]"}, {"measurement": "log β [Zr(L)] predicted from computational calculations", "setting": "[2]", "result": 41.20}, {"measurement": "pKa of the Th(IV) complex", "setting": "[5]", "result": 1.9}, {"measurement": "log Kamine (protonation constant of the amino group)", "setting": "[6]", "result": 10.97}, {"measurement": "pKa1 (protonation constant of the Ga(III) complex)", "setting": "[7]", "result": 0.78}, {"measurement": "pKa2 (protonation constant of the Ga(III) complex)", "setting": "[7]", "result": 1.10}, {"measurement": "log β [ZrH(DFOB)OH]", "setting": "[8]", "result": 40.04}, {"measurement": "log β [ZrHDFOB]", "setting": "[8]; different ionic strength", "result": 47.7}, {"measurement": "pKa attributed to the deprotonation of a water molecule in the Zr(IV) complex", "setting": "[8]", "result": 6.36}]}
{"smiles": "O=C1CCC(=O)N(O)CCCCCNC(=O)CCC(=O)N(O)CCCCCNC(=O)CCC(=O)N(O)CCCCCN1", "note": "[DFOE, desferrioxamine E, reference compound]", "values": [{"measurement": "pZr", "setting": "[9]", "result": 31.0}, {"measurement": "pGa", "setting": "[4]", "result": "25.2[38]"}, {"measurement": "log K LH2 (ligand protonation; log K2)", "setting": "[6]; [13]", "result": 9.42}, {"measurement": "log K LH3 (ligand protonation; log K3)", "setting": "[6]; [13]", "result": 8.65}, {"measurement": "log K LH (ligand protonation; log K1)", "setting": "[6]; [13]", "result": 9.89}, {"measurement": "log β LH (ligand protonation)", "setting": "[6]; [13]", "result": 9.89}]}
{"smiles": "O=C(O)CN1CCN(CC(=O)O)CCN(CC(=O)O)CCN(CC(=O)O)CC1", "note": "[DOTA, 1,4,7,10-tetraazacyclododecane-1,4,7,10-tetraacetic acid]", "values": [{"measurement": "pGa", "setting": "[4]", "result": "20.5[11]"}]}
{"smiles": "O=C(O)CN(CCN(CC(=O)O)CC(=O)O)CCN(CC(=O)O)CC(=O)O", "note": "[DTPA]", "values": [{"measurement": "pZr", "setting": "[1]", "result": "32.3[25],[59]"}]}
{"smiles": "O=C(O)CN(CCN(CC(=O)O)CC(=O)O)CC(=O)O", "note": "[EDTA, ethylenediaminetetraacetic acid]", "values": [{"measurement": "pKa attributed to the deprotonation of a water molecule in the Zr(IV) complex", "setting": "[8]", "result": 6.2}]}
{"smiles": "Oc1cccc2ccc(CNCCNCc3ccc4cccc(O)c4n3)nc12", "note": "[H2hox]", "values": [{"measurement": "pGa", "setting": "[4]", "result": "28.4[55]"}]}
{"smiles": "O=C1CCCCCN(O)C(=O)CCNC(=O)CCCCCN(O)C(=O)CCNC(=O)CCCCCN(O)C(=O)CCN1", "note": "[H3L3]", "values": [{"measurement": "pGa", "setting": "[10]", "result": 25.4}, {"measurement": "pZr", "setting": "[9]", "result": 31.5}, {"measurement": "pFe", "setting": "[11]", "result": 26.9}, {"measurement": "log K LH (ligand protonation; log K1)", "setting": "[6]; [13]", "result": 9.89}, {"measurement": "log β LH (ligand protonation)", "setting": "[6]; [13]", "result": 9.89}]}
{"smiles": "CN(O)C(=O)CCC(=O)NCCOCC(C)(COCCNC(=O)CCC(=O)N(C)O)COCCNC(=O)CCC(=O)N(C)O", "note": "[H3L4]", "values": [{"measurement": "pGa", "setting": "[10]", "result": 21.9}, {"measurement": "pZr", "setting": "[9]", "result": 32.6}, {"measurement": "log K LH2 (ligand protonation; log K2)", "setting": "[6]; [13]", "result": 8.97}, {"measurement": "log K LH3 (ligand protonation; log K3)", "setting": "[6]; [13]", "result": 8.26}, {"measurement": "log K LH (ligand protonation; log K1)", "setting": "[6]; [13]", "result": 9.50}, {"measurement": "log β LH2 (ligand protonation)", "setting": "[6]; [13]", "result": 18.47}, {"measurement": "log β LH3 (ligand protonation)", "setting": "[6]; [13]", "result": 26.73}, {"measurement": "log β LH (ligand protonation)", "setting": "[6]; [13]", "result": 9.50}, {"measurement": "log β [FeHL]", "setting": "[12]", "result": 29.82}, {"measurement": "log β [FeL]", "setting": "[12]; ref 38 (H3L3), 35 (H3L4), 36,38 (DFOE)", "result": 27.34}]}
{"smiles": "O=C(O)CN(CCN(CC(=O)O)Cc1ccccc1O)Cc1ccccc1O", "note": "[HBED]", "values": [{"measurement": "pGa", "setting": "[4]", "result": "28.0[57]"}]}
{"smiles": "O=C(O)CN1CCN(CC(=O)O)CCN(CC(=O)O)CC1", "note": "[NOTA]", "values": [{"measurement": "pGa", "setting": "[4]", "result": "27.4[54]"}]}
{"smiles": "O=C(O)CCP(=O)(O)CN1CCN(CP(=O)(O)CCC(=O)O)CCN(CP(=O)(O)CCC(=O)O)CC1", "note": "[PrP9]", "values": [{"measurement": "pGa", "setting": "[4]", "result": "23.1[56]"}]}
